Calls of active or inactive are those of the source.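 Rule for the calls: active = phosphorylated p38 level shifted at least 30% either way versus solvent-only control; inactive = shift under 30% either way.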

The test system of this test is SW620 cells, phospho-p38 western blot, 24 h. Description: phospho-p38 level change, either direction, late-stage follow-up, counter-screen for KLF5 inhibitor project, SW620 cells, chemiluminescent western blot, powder samples (AID 588663). As to conditions: at 10 µM; hits give high values. On the technique in general: A counterscreen serves to expose hits that act by an unwanted route or on another target.

As for `CN(C(=O)CNC(=O)/C=C/c1cccc(Cl)c1)C1CCS(=O)(=O)CC1`, the inhibition (in general, the relative decrease from the control value, in per cent) is 6.58% (inactive). As for `CN(C(=O)COC(=O)/C=C/c1cccc([N+](=O)[O-])c1)C1CCS(=O)(=O)C1` (stereo not drawn), the inhibition was 9.32% (inactive). For `CN(C(=O)CNC(=O)/C=C/c1cccc(Cl)c1)C1CCS(=O)(=O)C1` (stereo not drawn) the value was 15.9% (inactive).
